Experimental data taken from patent US20090311217A1, “3-SUBSTITUTED-1H-INDOLE COMPOUNDS, THEIR USE AS MTOR KINASE AND PI3 KINASE INHIBITORS, AND THEIR SYNTHESES” (priority 2008, published 2009).

Tests used:
Type in all cases: biochemical
PI3K-alpha = PI3K-alpha (Homo sapiens, UniProt P42336); assay: PI3K-alpha fluorescence polarization assay; details: read-out: PI3Kα Avg. IC50
human TOR = target: T1, human TOR (Homo sapiens, UniProt P42345); assay: mTOR enzyme assay (DELFIA, His6-S6K substrate); details: read-out: mTOR Kinase Avg. IC50
T1 construct: FLAG

PI3K-gamma = PI3K-gamma (Homo sapiens, UniProt P48736); assay: PI3K-gamma fluorescence polarization assay; details: PI3Kγ Avg. IC50
Sequence of PI3K-gamma (P48736 whole entry, species assumed, the tested form may be a part): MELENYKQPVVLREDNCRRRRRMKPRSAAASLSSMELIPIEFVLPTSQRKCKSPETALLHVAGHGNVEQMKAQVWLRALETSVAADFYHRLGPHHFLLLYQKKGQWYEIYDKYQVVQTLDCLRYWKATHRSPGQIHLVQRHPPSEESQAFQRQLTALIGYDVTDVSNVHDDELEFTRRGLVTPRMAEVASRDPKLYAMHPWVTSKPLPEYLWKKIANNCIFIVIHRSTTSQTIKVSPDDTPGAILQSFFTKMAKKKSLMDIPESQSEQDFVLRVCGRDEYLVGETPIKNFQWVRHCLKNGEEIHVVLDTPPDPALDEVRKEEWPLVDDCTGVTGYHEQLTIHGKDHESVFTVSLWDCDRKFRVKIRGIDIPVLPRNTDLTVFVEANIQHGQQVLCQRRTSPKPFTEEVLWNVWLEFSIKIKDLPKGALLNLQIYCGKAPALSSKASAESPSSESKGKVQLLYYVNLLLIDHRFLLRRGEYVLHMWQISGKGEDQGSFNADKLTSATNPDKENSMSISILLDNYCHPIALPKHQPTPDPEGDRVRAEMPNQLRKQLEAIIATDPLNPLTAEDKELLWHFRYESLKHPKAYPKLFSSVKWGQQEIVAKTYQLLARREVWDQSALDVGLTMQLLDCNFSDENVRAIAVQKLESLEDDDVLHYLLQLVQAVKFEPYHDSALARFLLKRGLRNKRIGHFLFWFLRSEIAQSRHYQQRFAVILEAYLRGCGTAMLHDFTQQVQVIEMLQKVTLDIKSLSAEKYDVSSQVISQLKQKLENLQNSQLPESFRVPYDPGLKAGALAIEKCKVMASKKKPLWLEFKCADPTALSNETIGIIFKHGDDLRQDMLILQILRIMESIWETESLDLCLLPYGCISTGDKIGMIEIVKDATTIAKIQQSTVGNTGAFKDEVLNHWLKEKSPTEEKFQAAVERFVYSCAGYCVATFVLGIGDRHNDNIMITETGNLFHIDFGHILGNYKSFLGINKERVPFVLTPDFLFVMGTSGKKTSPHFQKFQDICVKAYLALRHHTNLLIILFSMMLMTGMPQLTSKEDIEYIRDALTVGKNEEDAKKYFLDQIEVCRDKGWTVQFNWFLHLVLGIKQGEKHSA
Procedure, shortened: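 FP displacement read-out: 100 nM GST-GRP1 PH domain plus 5 nM BODIPY-TMR-IP4 added after EDTA stop. Preceding kinase step: 5 ng enzyme, diC8-PI(4,5)P2 2.5 μM, ATP 25 μM, MgCl2 2.5 mM, HEPES 5 mM pH 7, one hour, 25° C.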

Sequence of PI3K-alpha (P42336 whole entry, species assumed): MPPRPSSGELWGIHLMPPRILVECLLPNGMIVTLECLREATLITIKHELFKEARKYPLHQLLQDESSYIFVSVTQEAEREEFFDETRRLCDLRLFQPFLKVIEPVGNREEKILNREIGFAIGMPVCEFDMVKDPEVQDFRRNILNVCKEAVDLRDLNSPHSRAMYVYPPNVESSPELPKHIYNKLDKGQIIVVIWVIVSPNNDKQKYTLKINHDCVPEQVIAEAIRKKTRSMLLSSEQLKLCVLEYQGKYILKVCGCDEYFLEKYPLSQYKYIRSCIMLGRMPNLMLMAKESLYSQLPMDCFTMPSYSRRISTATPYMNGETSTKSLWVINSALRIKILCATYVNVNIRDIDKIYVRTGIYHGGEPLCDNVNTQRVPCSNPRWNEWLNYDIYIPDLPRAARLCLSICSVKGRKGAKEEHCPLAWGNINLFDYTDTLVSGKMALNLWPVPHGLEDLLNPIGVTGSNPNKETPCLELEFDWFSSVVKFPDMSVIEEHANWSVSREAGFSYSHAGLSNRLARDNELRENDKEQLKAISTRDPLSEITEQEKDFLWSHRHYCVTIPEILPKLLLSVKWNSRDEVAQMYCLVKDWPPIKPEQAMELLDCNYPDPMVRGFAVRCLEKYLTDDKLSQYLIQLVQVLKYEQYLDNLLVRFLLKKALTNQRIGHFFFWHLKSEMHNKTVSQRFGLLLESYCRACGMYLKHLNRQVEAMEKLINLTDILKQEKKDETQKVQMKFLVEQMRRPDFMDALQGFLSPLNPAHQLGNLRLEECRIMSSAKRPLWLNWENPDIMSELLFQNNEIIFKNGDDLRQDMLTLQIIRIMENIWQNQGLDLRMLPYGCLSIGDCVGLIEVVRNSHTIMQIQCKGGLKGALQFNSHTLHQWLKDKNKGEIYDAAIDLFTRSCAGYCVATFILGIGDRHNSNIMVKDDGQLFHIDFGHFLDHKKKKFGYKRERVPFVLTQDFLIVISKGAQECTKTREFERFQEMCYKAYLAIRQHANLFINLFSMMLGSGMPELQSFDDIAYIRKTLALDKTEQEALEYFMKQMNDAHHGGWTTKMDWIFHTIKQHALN
Sequence of PI3K-alpha (P27986 whole entry partner, species assumed): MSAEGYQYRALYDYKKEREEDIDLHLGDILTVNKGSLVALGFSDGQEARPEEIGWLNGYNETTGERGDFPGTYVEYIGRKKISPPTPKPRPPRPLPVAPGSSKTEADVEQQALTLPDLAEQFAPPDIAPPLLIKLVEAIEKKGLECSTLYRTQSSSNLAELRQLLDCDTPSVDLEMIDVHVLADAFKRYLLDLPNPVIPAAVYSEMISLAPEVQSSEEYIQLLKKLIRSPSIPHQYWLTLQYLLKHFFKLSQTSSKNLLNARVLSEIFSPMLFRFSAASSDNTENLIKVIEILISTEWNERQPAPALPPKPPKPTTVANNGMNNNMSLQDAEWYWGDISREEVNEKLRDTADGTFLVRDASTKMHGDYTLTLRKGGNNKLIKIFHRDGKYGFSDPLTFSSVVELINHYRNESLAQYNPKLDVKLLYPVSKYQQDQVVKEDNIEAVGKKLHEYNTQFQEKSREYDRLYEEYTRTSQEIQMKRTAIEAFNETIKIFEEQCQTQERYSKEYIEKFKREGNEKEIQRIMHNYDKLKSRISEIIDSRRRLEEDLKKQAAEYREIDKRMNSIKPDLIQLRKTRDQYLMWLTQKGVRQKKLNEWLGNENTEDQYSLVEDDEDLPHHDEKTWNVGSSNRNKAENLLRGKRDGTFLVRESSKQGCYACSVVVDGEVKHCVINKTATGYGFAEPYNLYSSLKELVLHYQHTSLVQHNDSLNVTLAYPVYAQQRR

Question: For `CCn1c(C)c(/C=C2\Oc3ccc(NC(=O)Nc4ccc(C(=O)N(C)CCCN(C)C)cc4)cc3C2=O)c2cc(OC)ccc21` [Compound 657, N-[3-(dimethylamino)propyl]-4-[({(2Z)-2-[(1-ethyl-5-methoxy-2-methyl-1H-indol-3-yl)methylene]-3-oxo-2,3-dihydro-1-benzofuran-5-yl}carbamoyl)amino]-N-methylbenzamide], which IC50 (PI3K-alpha) is on record?
Answer: Its IC50 is 0.4 nM.

Question: And the IC50 (human TOR)?
Answer: The IC50 was 84 nM.

Question: What about the IC50 (PI3K-gamma) of the same compound?
Answer: Its IC50 is 3.5 nM.

Question: Which IC50 (PI3K-alpha) does the source give for `COc1ccc2c(c1)c(/C=C1\Oc3ccc(NC(=O)Nc4ccc(C(=O)N5CCN(C)CC5)cc4)cc3C1=O)c(C)n2C` [Compound 658, 1-{(2Z)-2-[(5-methoxy-1,2-dimethyl-1H-indol-3-yl)methylidene]-3-oxo-2,3-dihydro-1-benzofuran-5-yl}-3-{4-[(4-methylpiperazin-1-yl)carbonyl]phenyl}urea] here?
Answer: The IC50 was 0.3 nM.

Question: And the IC50 (human TOR)?
Answer: The IC50 was 2450 nM.

Question: What about the IC50 (PI3K-gamma) of the same compound?
Answer: Its IC50 is 2.15 nM.

Question: With `CCn1c(C)c(/C=C2\Oc3ccc(NC(=O)Nc4ccc(C(=O)NCCNC)cc4)cc3C2=O)c2cc(OC)ccc21` [Compound 659, 4-[({(2Z)-2-[(1-ethyl-5-methoxy-2-methyl-1H-indol-3-yl)methylene]-3-oxo-2,3-dihydro-1-benzofuran-5-yl}carbamoyl)amino]-N-[2-(methylamino)ethyl]benzamide] as the compound, how does the IC50 (PI3K-alpha) read?
Answer: The IC50 was 0.3 nM.

Question: What about the IC50 (human TOR) of the same compound?
Answer: Its IC50 is 15 nM.

Question: And the IC50 (PI3K-gamma)?
Answer: The IC50 was 2.2 nM.

Question: For `CNCCNC(=O)c1ccc(NC(=O)Nc2ccc3c(c2)C(=O)/C(=C/c2c(C4CCCCC4)[nH]c4ccc(OC)cc24)O3)cc1` [Compound 660, 4-[({(2Z)-2-[(2-cyclohexyl-5-methoxy-1H-indol-3-yl)methylene]-3-oxo-2,3-dihydro-1-benzofuran-5-yl}carbamoyl)amino]-N-[2-(methylamino)ethyl]benzamide], which IC50 (PI3K-alpha) is on record?
Answer: Its IC50 is 0.3 nM.

Question: And the IC50 (human TOR)?
Answer: Its IC50 is 4 nM.

Question: And the IC50 (PI3K-gamma)?
Answer: The IC50 was 2.95 nM.

Question: Which results are given for `CNCCNC(=O)c1ccc(NC(=O)Nc2ccc3c(c2)C(=O)/C(=C/c2c(C)n(C)c4ccc(OC)cc24)O3)cc1` [Compound 661, 4-[({(2Z)-2-[(5-methoxy-1,2-dimethyl-1H-indol-3-yl)methylene]-3-oxo-2,3-dihydro-1-benzofuran-5-yl}carbamoyl)amino]-N-[2-(methylamino)ethyl]benzamide]?
Answer: IC50 (PI3K-alpha): 0.3 nM; IC50 (human TOR): 6 nM; IC50 (PI3K-gamma): 2 nM

Question: How did the IC50 (PI3K-alpha) turn out when `CNC(=O)Nc1cc(C)c2c(c1)C(=O)/C(=C/c1c(C)n(CCN3CCN(C)CC3)c3ccc(OC)cc13)O2` [Compound 662, 1-[(2Z)-2-({5-methoxy-2-methyl-1-[2-(4-methylpiperazin-1-yl)ethyl]-1H-indol-3-yl}methylidene)-7-methyl-3-oxo-2,3-dihydro-1-benzofuran-5-yl]-3-methylurea] was run?
Answer: The IC50 was 81.5 nM.

Question: And the IC50 (human TOR)?
Answer: Its IC50 is 1480 nM.

Question: And the IC50 (PI3K-gamma)?
Answer: Its IC50 is 3070 nM.

Question: `CCn1c(C)c(/C=C2\Oc3ccc(NC(=O)Nc4ccc(CCCCN(C)C)cc4)cc3C2=O)c2cc(OC)ccc21` [Compound 663, 1-{4-[4-(dimethylamino)butyl]phenyl}-3-{(2Z)-2-[(1-ethyl-5-methoxy-2-methyl-1H-indol-3-yl)methylidene]-3-oxo-2,3-dihydro-1-benzofuran-5-yl}urea] was tested. Which IC50 (PI3K-alpha) did it give?
Answer: The IC50 was 5.73 nM.

Question: And the IC50 (human TOR)?
Answer: The IC50 was 710 nM.

Question: And the IC50 (PI3K-gamma)?
Answer: The IC50 was 42.3 nM.

Question: Which results are given for `CNC(=O)Nc1ccc2c(c1)C(=O)/C(=C/c1c(-c3c(C)nn(C)c3C)n(CCNCCN(C)C)c3ccc(OC)cc13)O2` [Compound 664, 1-[(2Z)-2-{[1-(2-{[2-(dimethylamino)ethyl]amino}ethyl)-5-methoxy-2-(1,3,5-trimethyl-1H-pyrazol-4-yl)-1H-indol-3-yl]methylidene}-3-oxo-2,3-dihydro-1-benzofuran-5-yl]-3-methylurea]?
Answer: IC50 (PI3K-alpha): 2.05 nM; IC50 (human TOR): 18 nM; IC50 (PI3K-gamma): 63 nM

Question: For `CNC(=O)Nc1ccc2c(c1)C(=O)/C(=C/c1c(-c3c(C)nn(C)c3C)n(CCN(C)CCN(C)C)c3ccc(OC)cc13)O2` [Compound 665, 1-[(2Z)-2-{[1-(2-{[2-(dimethylamino)ethyl](methyl)amino}ethyl)-5-methoxy-2-(1,3,5-trimethyl-1H-pyrazol-4-yl)-1H-indol-3-yl]methylidene}-3-oxo-2,3-dihydro-1-benzofuran-5-yl]-3-methylurea], which IC50 (PI3K-alpha) is on record?
Answer: The IC50 was 5.5 nM.

Question: And the IC50 (human TOR)?
Answer: Its IC50 is 39 nM.

Question: And the IC50 (PI3K-gamma)?
Answer: The IC50 was 127 nM.
